This note sets out measurements from patent EP3283473B1, “GHRELIN O-ACYL TRANSFERASE INHIBITORS” (Eli Lilly and Company, priority 2015, dated 2016).

The target in this test is T1, human GOAT (Homo sapiens, UniProt Q96T53).
T1 construct: His; made in house; host or cells: Sf9 insect cells (baculovirus, pAN51 vector); microsomal membrane preparation
T1 sequence (Q96T53 1-435): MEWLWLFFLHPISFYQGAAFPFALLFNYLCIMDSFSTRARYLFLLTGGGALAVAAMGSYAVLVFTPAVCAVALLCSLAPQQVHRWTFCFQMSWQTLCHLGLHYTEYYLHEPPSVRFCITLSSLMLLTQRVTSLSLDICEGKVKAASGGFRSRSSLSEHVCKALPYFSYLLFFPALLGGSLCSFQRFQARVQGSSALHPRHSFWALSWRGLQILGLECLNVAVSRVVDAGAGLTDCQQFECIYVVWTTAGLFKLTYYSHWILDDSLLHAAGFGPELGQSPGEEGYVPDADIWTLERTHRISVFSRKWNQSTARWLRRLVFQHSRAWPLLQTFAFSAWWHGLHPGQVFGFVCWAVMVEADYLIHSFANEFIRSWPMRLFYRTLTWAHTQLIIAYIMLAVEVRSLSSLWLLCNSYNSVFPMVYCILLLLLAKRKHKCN
The experiment in a line: In vitro cell free human GOAT enzymatic assay. Format: biochemical. Particulars: GOAT-His/sf9 membrane preparation. Here is the method: Human GOAT gene (Accession number: NM_001100916) is subcloned to pAN51 baculoviral expression vector. Baculovirus stock is prepared following the Bac-to-Bac Protocol provided by the vendor, Invitrogen, California, USA. Five mililiters of human GOAT baculoviral stock are added to 500 mL Sf9 cells in HyQ SFX-Insect™ media (HyClone catalog number SH30278.02) at the density of 1 × 10^6 cells per milliliter in a 2 L Erlenmeyer flask. The flask with human GOAT gene infected Sf9 cells is put on a plate shaker at 120 rpm at 28 °C for 48 hours. After 48 hours incubation, cells are centrifuged at 1,000xg for 10 min at 4 °C. The cell pellets are collected and stored at -80 °C in a freezer until ready for further processing.
One gram cell pellets are suspended in 9 mL chilled homogenization buffer (50 mM Tris-HCl, 250 mM sucrose, adjusted to pH 7.5 and sterile filtered through 0.2 µm Millipore filter). The cell suspension is transferred to a Dounce glass homogenizer. Cell pellets are homogenized with 40 strokes on ice. The homogenate is centrifuged at 3,000 rpm in a Beckman swing bucket rotor at 4 °C for 10 min to remove unbroken cells. The supernatant is collected and centrifuged at 40,000 xg for 1 hour at 4 °C. The resulting membrane pellet is suspended in the homogenization buffer using a Dounce glass homogenizer and stored at -20 °C in the freezer for the assay. For long term storage of the human GOAT enzyme membrane preparation, the suspended membrane is stored in a -80 °C freezer.
Prepare test compounds in DMSO to make up a 0.2 mM stock solution. Serially dilute the stock solution in DMSO to obtain a ten-point dilution curve with final compound concentrations ranging from 10 µM to 0.5 nM in a 96-well round-bottom plate. Prepare enzyme and substrate solutions in assay buffer (0.02% TWEEN™-20 in 50 mM Tris, pH 7.5/250 mM sucrose/1 mg/mL BSA/10 mM EDTA). Add diluted compound (1 µL) to each well of row A to N of a corresponding low protein binding 384 well plate. Add human GOAT substrate mix (10 µL), consisting of human desacyl-ghrelin-biotin (CPC Scientific Inc., 6.0 µM final), octanoyl-coenzyme A (CoA) (Sigma, 60 µM final) and an AG specific antibody (WO 2006/091381)(1.0 µg/mL final), to the compounds. Add GOAT-His/sf9 enzyme preparation, that has been prepared in assay buffer (9 µL), to each well of the plate containing substrate and test compounds resulting in a final concentration of 0.01 µg/mL to initiate the reaction. Incubate the mixture for 1 hour at RT on a gently rotating oscillator. Add 4M guanidine hydrochloride (20 µL) to all wells, mix, and incubate for 3 hours to stop the reaction.
Prepare ELISA plates (STREPTAVIDIN SPECTRAPLATE™ 384, Perkin Elmer) by blocking with 2% Heat-Inactivated FBS in PBS (40 µL) (Invitrogen) blocking buffer for 3 hours. Aspirate the blocking buffer from ELISA plate and add blocking buffer (23 µL) to columns 1-24, rows A-N. Reserve rows O and P for the acylghrelin standard curve. Add the reaction mix (2 µL) to the ELISA plates. Prepare a 10 point standard curve (biotin-labeled octanoyl-ghrelin) by serial 2X dilution in blocking buffer containing 0.2M Guanidine hydrochloride starting at 2.5 pM. Incubate the reaction mixture or biotin-labeled AG standard in the ELISA plate overnight at 4 °C. The following day, wash the plate 3× with wash buffer (0.1% TWEEN™-20/PBS, 100 µL per well in each wash cycle). […] Read plates at 450 nm using an ENVISION® Multilabel plate reader. […]

Regarding `Cc1nc(C(F)(F)F)nc(N)c1CCC1CCN(C(=O)[C@H](C)NC(=O)c2ccnn2C)CC1` [Example 2, N-[(1S)-2-[4-[2-[4-Amino-6-methyl-2-(trifluoromethyl)pyrimidin-5-yl]ethyl]-1-piperidyl]-1-methyl-2-oxo-ethyl]-2-methyl-pyrazole-3-carboxamide], it took 69.5 ± 0.6 nM to reach the 20% level (IC20).
